Where no end group is shown, it is not given here.
How the values were obtained:
Type in all cases: cell-based, human
[1] = tested on: NHEKs; test: U1 RNA binding to the cell at 4 °C (immunocytofluorescence); conditions: 1 hour, peptide 2.5 μM
Description: (§1) Figure 2 Structure and cell binding of cathelicidin and dsRNA. (a) Structures of LL37, LL34, and LL34(I20P) bound to dsRNA were solved using SAXS. SAXS data is plotted as the scattering intensity I(q) vs. the momentum transfer vector q. LL34 (blue) and LL34(I20P) (green) condense dsRNA into square lattices with first peak positions of q10 = 0.167 Å^−1 and 0.170 Å^−1, respectively. Higher order Bragg reflections due to scattering of the square lattice of LL34 and LL34(I20P) are labeled for both complexes. In comparison, LL37 (magenta) condenses dsRNA into a columnar lattice with short-ranged order, with a first peak position of q1 = 0.172 Å^−1. (b) Linear fits of Bragg peak positions indicate that LL34-dsRNA (blue) and LL34(I20P)-dsRNA (green) complexes have inter-dsRNA spacings of 3.76 nm and 3.70 nm, respectively. Each reflection corresponding to the peaks in a for LL34 and LL34(I20P) are labeled. Close overlap of the two linear fits indicate that LL34-dsRNA and LL34(I20P)-dsRNA complexes have similar unit cell structures and inter-dsRNA spacings. End-on views along the dsRNA long-axis of the columnar (c) LL37-dsRNA and (d) LL34-dsRNA or LL34(I20P)-dsRNA complexes are shown. In (d), LL34-dsRNA and LL34(I20P)-dsRNA both form square columnar structures with similar unit cell architectures. […]

[2] = tested on: NHEKs; test: Immunoblotting of TBK1-AKT-IRF3 pathway and p38 MAPK phosphorylation; conditions: peptide 2.5 μM 10 minutes, then U1 RNA 2.5 μg/mL 30 minutes or 2 hours
Description: as §1, with “labeled.” for “labeled. Close overlap of the two linear fits indicate that LL34-dsRNA and LL34(I20P)-dsRNA complexes have similar unit cell structures and inter-dsRNA spacings. End-on views along the dsRNA long-axis of the columnar (c) LL37-dsRNA and (d) LL34-dsRNA or LL34(I20P)-dsRNA complexes are shown. In (d), LL34-dsRNA and LL34(I20P)-dsRNA both form square columnar structures with similar unit cell architectures.”
NHEKs were lysed in a denaturing lysis buffer containing 20 mM HEPES pH 7.4, 250 mM NaCl, 2 mM EDTA, and 1% SDS supplemented with completed proteinase inhibitor cocktail as well as 50 mM sodium floride, 5mM N-ethylmaleimide, 100 μM hemin chloride to maximally preserve protein post-translational modifications as described previously. […] Protein concentrations were measured by BCA protein assay kit (Thermofisher). […]

[3] = tested on: THP1 cells; test: U1 RNA co-association with early endosome (EEA1) in THP1; conditions: PMA-treated THP1, 37 °C, 4 hours
Experimental: NHEKs were grown on 8-well chamber slides (Thermofisher Scientific). After indicated treatments, cells were fixed in 4% paraformaldehyde (PFA) (Thermofisher Scientific) for 10 minutes and blocked with 3% bovine serum albumin, 0.2 M Glycine (Sigma) with or without 1 mg/mL saponin (Sigma) prior to incubating with primary antibodies followed by appropriate 488- or 568-coupled secondary antibodies, or 488-streptavidin conjugate. Nuclei were counterstained with DAPI. All images were taken with an Olympus BX41 microscope (widefield), Zeiss LSM510 confocal microscope, or Nikon A1R Confocal STORM microscope as indicated.
Figure S2. a) PMA-treated THP1 cultured at 37 °C for 4 hours with U1 RNA and cathelicidin peptides. Early endosomal antigen 1 (EEA1) is stained red, U1 RNA is stained green and nuclei were visualized with DAPI (blue). Scale bar represents 10 μm. b) IL-6 mRNA in NHEKs cultured with FPR1 inhibitor Boc-MLF (1 µM) or FPR2 inhibitor WRW4 (1 µM) for 1 hour, treated with LL37 (2.5 µM) and U1 RNA (2.5 µg/mL) for a further 6 hours. (n = 3). c) IL-6 mRNA in NHEKs cultured with G-protein coupled receptor inhibitor pertussis toxin (0.5 µg/mL) for 1 hour, treated with LL37 (2.5 µM) and U1 RNA (2.5 µg/mL) for a further 6 hours. (n = 3). […]

## LL37
[1]
  capacity to enable U1 RNA to bind to the cell: showed the capacity to enable U1 RNA to bind to the cell
[2]
  phosphorylation in the TBK1-AKT-IRF3 pathway and p38 MAPK: increased
[3]
  co-association of U1 RNA with the early endosome: induced partial co-association with the early endosome

## LLGDFFRKSKEKIGKEFKRIVQRIKDFLRNLVPR [LL34]
[1]
  capacity to enable U1 RNA to bind to the cell: showed the capacity to enable U1 RNA to bind to the cell
[2]
  phosphorylation in the TBK1-AKT-IRF3 pathway and p38 MAPK: increased
[3]
  co-association of U1 RNA with the early endosome: induced partial co-association with the early endosome

— PMC5838106, “Cathelicidin promotes inflammation by enabling binding of self-RNA to cell surface scavenger receptors” (Scientific Reports, 2018)
